From US6544983B2, “Diazepinoindoles for the treatment of chronic obstructive pulmonary disease” (Pfizer Inc, priority 2000, dated 2003)
Read-outs that look alike come from different tables or passages of the source.

Assays:
[1] = in humans; Torphy et al. 1999; cited from earlier work
[2] = system: LPS-induced lung neutrophilia; assay: Neutrophilia induced by LPS aerosol in the Wistar rat; assay type: in vivo; settings: Wistar rats, oral
Description: (§1) The model retained to assess the usefulness of the compounds of the invention for the treatment of COPD was a neutrophilia model. Neutrophilia was induced by exposure of rats or mice to a lipopolysaccharide (LPS) aerosol.
The animals were treated with compound 1 or cilomilast when conscious, that was by the oral route.
One hour after the treatment, the rats were placed in a plexiglass box and were given a 200 μg/ml aerosol of LPS (Escherichia coli, serotype O55:B5) for 1 hour. Control rats were not given the LPS aerosol. This control is called ‘sham’ in FIGS. 1 and 2.
Two hours after the exposure to the LPS, the animals were then anaesthetised by intraperitoneal injection of 6% sodium pentobarbital at a rate of 1 ml/kg. A tracheotomy was carried out and a tracheal cannula was inserted.
Using a 5-ml syringe, 3 consecutive washings were carried out with a 5-ml volume of a […] NaCl+EDTA solution (37° C.), in order to recover the cell population present in the lumen of the airways. The fluid which had thus been withdrawn was stored at +4° C. on ice.

[3] = single dose of 20 mg; Murdoch et al. 1998; cited from earlier work
[4] = system: LPS-induced TNFα release in whole blood; assay: Inhibition of in vitro LPS-induced TNFα production in whole blood of COPD patients; assay type: cell-based; settings: Homo sapiens; whole blood of COPD patients (n=7), LPS 50 μg/ml, 22-24 h at 37° C., ELISA
Excerpt: The aim of this study was to compare the in vitro activities of three selective PDE4 inhibitors (compound 1, rolipram which is 4-[3-(cyclopentyloxy)-4-methoxy-phenyl]-2-pyrrolidinone, and cilomilast) at reducing lipopolysaccharide (LPS)-induced TNFα release in whole blood of COPD patients. Thirteen COPD patients, diagnosed according to the ATS guidelines^iv, were included in this study to determine the concentration-effect of LPS on TNF^α production (n=6) and the IC50 values of compound 1, rolipram and cilomilast (n=7).
Blood (15 ml/patient) was collected in heparin tubes and distributed in 96-well microplates (250 μl/well).
After a 30-min incubation at 37° C., 25 μl of increasing concentrations of the compound to test or vehicle were added in different wells. The microplates were incubated at 37° C. for 30 min, and then 25 μl of LPS (E. coli) at 50 μg/ml (stimulated wells) or 25 μl of sterile saline (unstimulated wells) were added. The microplates were incubated 22-24 h at 37° C.
125 μl of the supernatant plasma were transferred gently in sterile 96-well microplates and stored at −80° C. until TNFα assay. The TNFα production was then measured by an ELISA assay.

[5] = system: LPS-induced lung neutrophilia; assay: Neutrophilia induced by LPS aerosol in the C57 bl/6 mouse; assay type: in vivo; settings: oral route, 1 h before LPS aerosol 100 μg/ml; bronchoalveolar washings 24 h after exposure
Description: as §1
The animals were treated with compound 1 when conscious, that was by the oral route.
One hour after treatment, the mice were placed in a plexiglass box (at most 25 mice to a box) and were given a 100 μg/ml aerosol of LPS (Escherichia coli, serotype O55:B5) for 1 hour. Control mice were not given the LPS aerosol.
Twenty-four hours after the exposure to the LPS, the animals were then anaesthetised by an intraperitoneal injection of 0.6% sodium pentobarbital at a rate of 15 ml/kg. A tracheotomy was carried out and a tracheal cannula was inserted. […]
The cells contained in the bronchoalveolar washing fluid were counted using a Coulter particle counter. […]
The arithmetic mean and the standard deviation (SD) of the number of neutrophils in the bronchoalveolar washing fluids were calculated for each treatment group. The percentage inhibition was calculated in the following manner: [formula] […]
The 90% confidence interval for the percentage inhibition was to be calculated by the “Delta method” or “Fieller method” ^i, ii & iii (Armitage & al, 1998; Feuerstein & al, 1997; Hubert & al, 1988) if appropriate.

[6] = Half-life in humans after single oral doses to healthy volunteers; settings: human, in vivo, single oral doses 1 to 25 mg
Excerpt: Such values indicate that compound 1 may be administered once daily.

Row | Structure (SMILES) | elimination half-life [1] | percentage of inhibition of the LPS-induced lung neutrophilia ([2]; 30 mg/kg) [%] | side effects [3] | IC50 [4] [nM] | inhibition of the LPS-induced lung neutrophilia in mice [5] | efficiency relative to cilomilast at the same dose ([2]; 10 mg/kg) | percentage of inhibition of the LPS-induced lung neutrophilia ([2]; 10 mg/kg) [%] | half-life ([6]; read-out: mean terminal half-life values, range over doses) [h] | half-life ([6]; read-out: terminal half-life, mean over all doses (converted)) [h]
1 | COc1ccc([C@]2(C#N)CC[C@@H](C(=O)O)CC2)cc1OC1CCCC1 [cilomilast, cis-4-cyano-4-[3-(cyclopentyloxy)-4-methoxyphenyl]cyclohexane carboxylic acid] | approximately 8 hours | 74 | relevant side effects such as nausea and vomiting occurred | > 10000 | – | – | – | – | –
2 | Nc1cc2c3c(c1)C(c1ccccc1)=N[C@@H](NC(=O)c1cccnc1)C(=O)N3CC2 [compound 1, (3R)N-(9-amino-4-oxo-1-phenyl-3,4,6,7-tetrahydro-[1,4]diazepino[6,7,1-hi]indol-3-yl)-nicotinamide] | – | 80 | – | 1300 ± 700 | strongly inhibited | twice more efficient than cilomilast | 74 | 13.9 to 17.1 | 15.4
3 | COc1ccc(C2CNC(=O)C2)cc1OC1CCCC1 (stereo not drawn) [rolipram, 4-[3-(cyclopentyloxy)-4-methoxy-phenyl]-2-pyrrolidinone] | – | – | – | 2800 ± 900 | – | – | – | – | –
